Measured values published in ChEMBL document CHEMBL5113419.
Active and inactive are the calls of the source. No cut-off for these calls is given here.

Key:
[1] = molecular target: T1, Suppressor of tumorigenicity 14 protein (Homo sapiens, UniProt Q9Y5Y6); assay: (§1) Binding affinity to N-terminal MRGS(His)6GSDDDDK-tagged Matriptase (unknown origin) expressed in Escherichia coli assessed as inhibition constant using Mes-DArg-Pro-Arg-AMC as substrate
T1 sequence (Q9Y5Y6 whole entry): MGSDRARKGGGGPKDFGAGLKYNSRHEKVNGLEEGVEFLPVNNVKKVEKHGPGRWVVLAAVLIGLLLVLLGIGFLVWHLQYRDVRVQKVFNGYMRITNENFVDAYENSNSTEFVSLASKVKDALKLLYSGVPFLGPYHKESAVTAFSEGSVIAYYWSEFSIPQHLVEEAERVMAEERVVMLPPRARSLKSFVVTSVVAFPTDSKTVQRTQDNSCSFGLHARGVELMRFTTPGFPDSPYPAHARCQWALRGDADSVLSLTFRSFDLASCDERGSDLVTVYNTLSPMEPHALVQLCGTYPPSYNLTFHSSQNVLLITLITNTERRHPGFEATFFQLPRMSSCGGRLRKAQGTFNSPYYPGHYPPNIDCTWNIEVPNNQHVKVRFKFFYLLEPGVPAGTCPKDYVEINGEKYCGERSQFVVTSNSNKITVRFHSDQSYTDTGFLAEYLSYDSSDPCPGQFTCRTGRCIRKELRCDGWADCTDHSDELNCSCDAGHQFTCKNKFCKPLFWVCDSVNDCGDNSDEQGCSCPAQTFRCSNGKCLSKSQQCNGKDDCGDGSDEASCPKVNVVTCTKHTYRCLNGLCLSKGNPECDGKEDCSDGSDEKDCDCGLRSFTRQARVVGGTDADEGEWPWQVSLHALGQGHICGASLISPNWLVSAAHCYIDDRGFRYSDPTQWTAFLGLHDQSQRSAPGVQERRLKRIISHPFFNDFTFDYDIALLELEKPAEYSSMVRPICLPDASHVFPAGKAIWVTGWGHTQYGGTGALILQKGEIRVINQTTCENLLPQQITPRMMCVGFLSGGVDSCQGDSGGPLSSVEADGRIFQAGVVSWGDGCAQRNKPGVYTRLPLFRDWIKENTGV

Prothrombin = Prothrombin (Bos taurus, UniProt P00735); assay: Binding affinity to bovine thrombin assessed as inhibition constant using tosyl-Gly-Pro-Arg-AMC as substrate
Coagulation factor X = Coagulation factor X (Homo sapiens, UniProt P00742); assay: Binding affinity to FXa (unknown origin) using Mes-DArg-Pro-Arg-AMC as substrate
[2] = as §1, with “Selectivity ratio of Ki for binding affinity to bovine thrombin assessed as inhibition constant using tosyl-Gly-Pro-Arg-AMC as substrate to Ki for binding” for “Binding”; details: Homo sapiens
Homo sapiens = organism: Homo sapiens; assay: Selectivity ratio of Ki for binding affinity to FXa (unknown origin) using Mes-DArg-Pro-Arg-AMC as substrate to Ki for binding affinity to N-terminal MRGS(His)6GSDDDDK-tagged Matriptase (unknown origin ) expressed in Escherichia coli assessed as inhibition constant using Mes-DArg-Pro-Arg-AMC as substrate
[3] = Binding affinity to bovine trypsin assessed as inhibition constant […]; design: species or system Bos taurus
MDCK-II = assay: Cytotoxicity against MDCK-II cells assessed as reduction in cell viability at 50 uM measured for 24 hrs by Celltiter-glo luminescent assay; type: toxicity, cell-based, Canis lupus familiaris; details: dog
Influenza A virus [4] = assay: Antiviral activity against Influenza A virus H9N2 infected in MDCK-II cells assessed as inhibition of viral replication measured after 24 hrs by immunostaining based assay; type: functional, organism-based; details: DDE = dose-dependent effect
Influenza A virus [5] = assay: Antiviral activity against Influenza A virus H9N2 infected in MDCK-II cells assessed as reduction in comet-shaped foci at 50 uM measured after 24 hrs by immunostaining based assay; type: functional, organism-based
Influenza A virus [6] = assay: Antiviral activity against Influenza A virus H9N2 infected in MDCK-II cells assessed as reduction in comet-shaped foci at 20 uM measured after 24 hrs by immunostaining based assay; type: functional, organism-based
Influenza A virus [7] = assay: Antiviral activity against Influenza A virus H9N2 infected in MDCK-II cells assessed as reduction in viral titer in supernatants at 5 to 50 uM measured after 24 hrs by plaque assay; type: functional, organism-based; details: dose 5-50 µM
Influenza A virus [8] = assay: Antiviral activity against Influenza A virus H9N2 infected in MDCK-II cells assessed as inhibition of viral replication at 5 uM measured after 24 hrs by immunostaining based assay; type: functional, organism-based

Sequence of Coagulation factor X (P00742 41-179 limits assumed): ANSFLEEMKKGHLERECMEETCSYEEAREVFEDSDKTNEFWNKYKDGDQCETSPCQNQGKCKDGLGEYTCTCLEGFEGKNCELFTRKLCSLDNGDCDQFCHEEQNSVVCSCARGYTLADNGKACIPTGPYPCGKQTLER
Sequence of Coagulation factor X (P00742 235-488 limits assumed): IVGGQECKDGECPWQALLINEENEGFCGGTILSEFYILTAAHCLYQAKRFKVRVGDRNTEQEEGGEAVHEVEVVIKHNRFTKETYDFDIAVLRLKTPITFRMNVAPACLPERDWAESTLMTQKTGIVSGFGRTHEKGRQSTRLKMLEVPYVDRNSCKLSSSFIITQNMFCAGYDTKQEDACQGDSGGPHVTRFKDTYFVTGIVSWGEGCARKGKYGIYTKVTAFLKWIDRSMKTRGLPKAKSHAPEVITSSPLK

SMILES | Ki [1] [nM] | Ki (Prothrombin) [nM] | Ki (Coagulation factor X) [nM] | Ratio Ki [2] | Ratio Ki (Homo sapiens) | Ki [3] [nM] | Activity (MDCK-II) | Activity (Influenza A virus [4]) | Activity (Influenza A virus [5]) | Activity (Influenza A virus [6]) | Activity (Influenza A virus [7]) | Activity (Influenza A virus [8])
COc1ccc(-c2cccc(S(=O)(=O)N[C@@H](Cc3cccc(C(=N)N)c3)C(=O)N3CCN(C(=O)OC(C)(C)C)CC3)c2)c(OC)c1 | 17 | 12 | 52 | 0.7 | 3.1 |  |  |  |  |  |  | 
CC(C)(C)NC(=O)NC1CCN(C(=O)[C@H](Cc2cccc(C(=N)N)c2)NS(=O)(=O)c2cccc(-c3ccc(CO)c(F)c3)c2)CC1 | 15 | 23000 | 190 | 1530 | 13 | 0.6 | Toxic | Dde | Active | Active | Active | 
CC(C)(C)NC(=O)NC1CCN(C(=O)[C@H](Cc2cccc(C(=N)N)c2)NS(=O)(=O)c2cccc(-c3cccc(CN)c3)c2)CC1 | 1 | 1320 | 0.1 | 1320 | 0.1 |  |  |  |  |  |  | 
COc1ccc(-c2cccc(S(=O)(=O)N[C@@H](Cc3cccc(C(=N)N)c3)C(=O)N3CCC(NC(=O)NC(C)C)CC3)c2)c(OC)c1 | 8 | 228 | 3 | 29 | 0.4 |  |  |  |  |  |  | 
CC(C)(C)NC(=O)NC1CCN(C(=O)[C@H](Cc2cccc(C(=N)N)c2)NS(=O)(=O)c2cccc(-c3cccc(C(=N)N)c3)c2)CC1 | 0.7 | 2550 | 9 | 3640 | 13 | 5 | Toxic | Dde | Active | Active | Active | Active
CC(C)(C)NC(=O)NC1CCN(C(=O)[C@H](Cc2cccc(C(=N)N)c2)NS(=O)(=O)c2cccc(-c3ccc(F)c(CO)c3)c2)CC1 | 50 | 1070 | 51 | 21 | 1 |  |  |  |  |  |  | 
COc1ccc(-c2cccc(S(=O)(=O)N[C@@H](Cc3cccc(C(=N)N)c3)C(=O)N3CCN(C(=O)C(C)(C)C)CC3)c2)c(OC)c1 | 143 | 42 | 116 | 0.3 | 0.8 |  |  |  |  |  |  | 
COc1ccc(-c2cccc(S(=O)(=O)N[C@@H](Cc3cccc(C(=N)N)c3)C(=O)N3CCN(C(=O)C4CCCCC4)CC3)c2)c(OC)c1 | 43 | 414 | 95 | 10 | 2.2 |  |  |  |  |  |  | 
COc1ccc(-c2cccc(S(=O)(=O)N[C@@H](Cc3cccc(C(=N)N)c3)C(=O)N3CCN(C(=O)NC4CCCCC4)CC3)c2)c(OC)c1 | 38 | 912 | 10 | 24 | 0.3 |  | Toxic | Dde | Active | Active | Active | 
CC(C)(C)NC(=O)NC1CCN(C(=O)[C@H](Cc2cccc(C(=N)N)c2)NS(=O)(=O)c2cccc(-c3cccc(CO)c3)c2)CC1 | 59 | 490 | 33 | 8.3 | 0.6 |  |  |  |  |  |  | 
CC(C)(C)NC(=O)NC1CCN(C(=O)[C@H](Cc2cccc(C(=N)N)c2)NS(=O)(=O)c2cccc(-c3ccc(Cl)cc3Cl)c2)CC1 | 5 | 174 | 4 | 35 | 0.8 |  |  |  |  |  |  | 
CC(C)(C)NC(=O)NC1CCN(C(=O)[C@H](Cc2cccc(C(=N)N)c2)NS(=O)(=O)c2cccc(-c3ccc(N)nc3)c2)CC1 | 3 | 4260 | 4 | 1420 |  |  |  |  |  |  |  | 
CNC(=O)NC1CCN(C(=O)[C@H](Cc2cccc(C(=N)N)c2)NS(=O)(=O)c2cccc(-c3ccc(OC)cc3OC)c2)CC1 | 26 | 89 | 23 | 3.4 | 0.9 |  |  |  |  |  |  | 
CC(C)(C)NC(=O)NC1CCN(C(=O)[C@H](Cc2cccc(C(=N)N)c2)NS(=O)(=O)c2cccc(-c3ccc(CN)cc3)c2)CC1 | 4 | 553 | 10 | 138 | 2.5 |  |  |  |  |  |  | 
COc1ccc(-c2cccc(S(=O)(=O)N[C@@H](Cc3cccc(C(=N)N)c3)C(=O)N3CCN(C(=O)NC(C)(C)C)CC3)c2)c(OC)c1 | 104 | 73 | 13 | 0.7 | 0.1 |  |  |  |  |  |  | 
CC(C)(C)NC(=O)NC1CCN(C(=O)[C@H](Cc2cccc(C(=N)N)c2)NS(=O)(=O)c2cccc(-c3cc(F)c(CO)c(F)c3)c2)CC1 | 24 | 11800 | 504 | 492 | 21 |  |  |  |  |  |  | 
CC(C)(C)NC(=O)NC1CCN(C(=O)[C@H](Cc2cccc(C(=N)N)c2)NS(=O)(=O)c2cccc(-c3ccc(CO)cc3)c2)CC1 | 11 | 12000 | 60 | 1090 | 5.5 |  |  |  |  |  |  | 
COc1ccc(-c2cccc(S(=O)(=O)N[C@@H](Cc3cccc(C(=N)N)c3)C(=O)N3CCC(NC(=O)NC(C)(C)C)CC3)c2)c(OC)c1 | 3 | 1800 | 2 | 600 | 0.7 |  | Toxic | Dde | Active | Active | Active | 
Cc1ccc(-c2cccc(S(=O)(=O)N[C@@H](Cc3cccc(C(=N)N)c3)C(=O)N3CCC(NC(=O)NC(C)(C)C)CC3)c2)cc1 | 7 | 412 | 28 | 59 | 4 |  |  |  |  |  |  | 
CC(C)Oc1ccc(-c2cccc(S(=O)(=O)N[C@@H](Cc3cccc(C(=N)N)c3)C(=O)N3CCC(NC(=O)NC(C)(C)C)CC3)c2)cc1 | 58 | 5140 | 439 | 89 | 9.3 |  |  |  |  |  |  | 
COCc1ccc(-c2cccc(S(=O)(=O)N[C@@H](Cc3cccc(C(=N)N)c3)C(=O)N3CCC(NC(=O)NC(C)(C)C)CC3)c2)cc1 | 9 | 1790 | 179 | 199 | 20 |  |  |  |  |  |  | 
CC(C)(C)NC(=O)NC1CCN(C(=O)[C@H](Cc2cccc(C(=N)N)c2)NS(=O)(=O)c2cccc(-c3ccc(C(=N)N)cc3)c2)CC1 | 0.8 | 449 | 84 | 561 | 105 |  |  |  |  |  |  | 
CC(C)(C)NC(=O)NC1CCN(C(=O)[C@H](Cc2cccc(C(=N)N)c2)NS(=O)(=O)c2cccc(-c3ccc(COC(C)(C)C)cc3)c2)CC1 | 171 | 2520 | 529 | 15 | 3.1 |  |  |  |  |  |  | 
